Data on 28 compounds can be found in US20090042726A1, “Novel Herbicides” (SYNGENTA LIMITED, priority 2005, published 2009).

Structures are written as SMILES.

In this assay the test system is Monocotyledonous and dicotyledonous test plants. As to the kind of experiment: Herbicidal action, application pre-emergence (Example B1). The assay is classed as in vivo. Details: key: 10=total damage to plant; 0=no damage to plant. The following applies: 1000 g/ha, evaluated after 9 or 13 days; for AGSTE herbicidal action (damage score 0-10): Agrostis-tenius; for AMARE herbicidal action (damage score 0-10): Amaranthus retroflexus; for DIGSA herbicidal action (damage score 0-10): Digitaria sanguinalis; for POATR herbicidal action (damage score 0-10): Poa trivialis; for SETIT herbicidal action (damage score 0-10): Setaria italica. The procedure, abridged: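 Seeds sown in sterilised standard soil were sprayed one day after sowing (pre-emergence) with 1000 mg/l active ingredient in aqueous solution containing 10% DMSO. Plants were kept in a climatic chamber at 24/19° C. day/night after application. Damage was scored 0 (none) to 10 (total) after 9 or 13 days.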

As to `Cn1nc(C(F)(F)F)c(C[S+]([O-])C2=NOC(C)(C)C2F)c1OC(F)F` (single isomer, unassigned) [2.24], the “AGSTE herbicidal action (damage score 0-10)” value (from here on “AGSTE herbicidal action”) is 10, the “AMARE herbicidal action (damage score 0-10)” value (shortened to “AMARE herbicidal action”) is 10, the “DIGSA herbicidal action (damage score 0-10)” value (“DIGSA herbicidal action” below) was 10 and the “POATR herbicidal action (damage score 0-10)” value (from here on “POATR herbicidal action”) is on record as 10. For the same compound, the “SETIT herbicidal action (damage score 0-10)” value (shortened to “SETIT herbicidal action”) was found to be 10.
For `Cn1nc(C(F)(F)F)c(CSC2=NOC(C)(C)C2F)c1OC(F)F` (stereo not shown) [Compound No. 2.22], the “AGSTE herbicidal action” value was 10, the “AMARE herbicidal action” value is reported as 9, the “DIGSA herbicidal action” value is 9 and the “POATR herbicidal action” value worked out at 9. In addition, the “SETIT herbicidal action” value came to 9.
With `Cc1nc(C(F)(F)F)ccc1CS(=O)(=O)C1=NOC(C)(C)C1F` (stereo not shown) [3.03], the “AGSTE herbicidal action” value was 10, the “AMARE herbicidal action” value is listed as 10, the “DIGSA herbicidal action” value stood at 0 and the “POATR herbicidal action” value came to 10. In addition, the “SETIT herbicidal action” value turned out to be 9.
For the compound `CC(C)n1nc(C[S+]([O-])C2=NOC(C)(C)C2F)c(C(F)(F)F)n1` (single isomer, unassigned) [7.26], the “AGSTE herbicidal action” value turned out to be 9, the “AMARE herbicidal action” value stood at 0, the “DIGSA herbicidal action” value was determined as 5 and the “POATR herbicidal action” value was found to be 6.
With `Cn1nc(C(F)(F)F)c(C[S+]([O-])C2=NOC(C)(C)C2F)c1OCC(F)(F)F` (mixture of isomers) [2.08], the “AGSTE herbicidal action” value came out at 10, the “AMARE herbicidal action” value was 10, the “DIGSA herbicidal action” value came to 10 and the “POATR herbicidal action” value was 10. For the same compound, the “SETIT herbicidal action” value is 10.
As for `C#CCn1cc(CS(=O)(=O)C2=NOC(C)(C)C2F)c(C(F)(F)F)n1` (stereo not shown) [2.50], the “AGSTE herbicidal action” value amounted to 10, the “AMARE herbicidal action” value is reported as 10, the “DIGSA herbicidal action” value was found to be 10 and the “POATR herbicidal action” value came out at 10.
`Cn1ncc(CS(=O)(=O)C2=NOC(C)(C)C2F)n1` (stereo not shown) [7.23]: the “AGSTE herbicidal action” value came out at 10, the “AMARE herbicidal action” value turned out to be 5, the “DIGSA herbicidal action” value amounted to 9 and the “POATR herbicidal action” value is recorded as 9.
In the case of `CC1(C)ON=C(SCc2nn(CC3CCC3)nc2C(F)(F)F)C1F` (stereo not shown) [Compound No. 7.15], the “AGSTE herbicidal action” value is given as 8, the “AMARE herbicidal action” value is listed as 9, the “DIGSA herbicidal action” value is on record as 9 and the “POATR herbicidal action” value was 0.
Turning to `Cn1nc(CS(=O)(=O)C2=NOC(C)(C)C2F)c(C(F)(F)F)c1C#N` (stereo not shown) [4.09], the “AGSTE herbicidal action” value amounted to 10, the “AMARE herbicidal action” value is 9, the “DIGSA herbicidal action” value is given as 7 and the “POATR herbicidal action” value is listed as 4.
The like results for `CCn1ncc(C[S+]([O-])C2=NOC(C)(C)C2F)n1` (mixture of isomers) [7.35] were, in that order, 10, 8, 9 and 9.
The corresponding values for `CC1(C)ON=C(SCc2cccnc2Cl)C1F` (stereo not shown) [Compound No. 3.04] are 8, 2, 8 and 7.
The like results for `Cc1nc(C[S+]([O-])C2=NOC(C)(C)C2F)n(C)n1` (single isomer, unassigned) [8.02] were, in that order, 10, 4, 10 and 10.
On to `COCCn1nc(CSC2=NOC(C)(C)C2F)c(C(F)(F)F)n1` (stereo not shown) [Compound No. 7.18], for which the “AGSTE herbicidal action” value is given as 7, the “AMARE herbicidal action” value is 8, the “DIGSA herbicidal action” value is on record as 8 and the “POATR herbicidal action” value turned out to be 0.
With `CC1(C)ON=C(S(=O)(=O)Cc2ccccc2OC(F)(F)F)C1F` (stereo not shown) [1.11], the “AGSTE herbicidal action” value is 10, the “AMARE herbicidal action” value was found to be 7, the “DIGSA herbicidal action” value is 10 and the “POATR herbicidal action” value is 10. Besides, the “SETIT herbicidal action” value came to 8.
For `CCc1nn(C)nc1CS(=O)(=O)C1=NOC(C)(C)C1F` (stereo not shown) [7.33], the “AGSTE herbicidal action” value was found to be 10, the “AMARE herbicidal action” value is listed as 10, the “DIGSA herbicidal action” value is 10 and the “POATR herbicidal action” value came out at 10.
On to `CC1(C)ON=C([S+]([O-])Cc2nn(C3CCCC3)nc2C(F)(F)F)C1F` (mixture of isomers) [7.13], for which the “AGSTE herbicidal action” value is recorded as 10, the “AMARE herbicidal action” value stood at 4, the “DIGSA herbicidal action” value turned out to be 9 and the “POATR herbicidal action” value was 8.
The corresponding values for `C=CCn1nc(C[S+]([O-])C2=NOC(C)(C)C2F)c(C(F)(F)F)n1` (single isomer, unassigned) [7.08] are 10, 10, 10 and 10.
For `CC1(C)ON=C([S+]([O-])Cc2c(F)cccc2F)C1F` (single isomer, unassigned) [1.16], the “AGSTE herbicidal action” value is listed as 10, the “AMARE herbicidal action” value is 8, the “DIGSA herbicidal action” value is reported as 10 and the “POATR herbicidal action” value was 10. The “SETIT herbicidal action” value worked out at 6.
For the compound `Cn1nc(OC(F)F)cc1CSC1=NOC(C)(C)C1F` (stereo not shown) [Compound No. 6.08], the “AGSTE herbicidal action” value came to 9, the “AMARE herbicidal action” value is 3, the “DIGSA herbicidal action” value is listed as 8 and the “POATR herbicidal action” value was found to be 9.
Turning to `CC1(C)ON=C([S+]([O-])Cc2cccnc2Cl)C1F` (mixture of isomers) [3.05], the “AGSTE herbicidal action” value stood at 9, the “AMARE herbicidal action” value came out at 10, the “DIGSA herbicidal action” value was 8 and the “POATR herbicidal action” value stood at 10.
Turning to `CC1(C)ON=C(S(=O)(=O)Cc2c(F)cccc2F)C1F` (stereo not shown) [1.17], the “AGSTE herbicidal action” value is 10, the “AMARE herbicidal action” value is 10, the “DIGSA herbicidal action” value was 8 and the “POATR herbicidal action” value is on record as 10. Besides, the “SETIT herbicidal action” value came to 8.
As to `Cc1nn(C(C)C)nc1C[S+]([O-])C1=NOC(C)(C)C1F` (mixture of isomers) [7.38], the “AGSTE herbicidal action” value amounted to 10, the “AMARE herbicidal action” value amounted to 6, the “DIGSA herbicidal action” value was found to be 7 and the “POATR herbicidal action” value worked out at 7.
As to `Cn1nc(C(F)(F)F)c(C[S+]([O-])C2=NOC(C)(C)C2Cl)c1OC(F)F` (mixture of isomers) [2.17], the “AGSTE herbicidal action” value was found to be 10, the “AMARE herbicidal action” value was 6, the “DIGSA herbicidal action” value came out at 10 and the “POATR herbicidal action” value is reported as 10. The “SETIT herbicidal action” value turned out to be 9.
With `Cn1nc(C(F)(F)F)c(C[S+]([O-])C2=NOC(C)(C)C2F)c1OC(F)F` (single isomer, unassigned) [2.25], the “AGSTE herbicidal action” value was 10, the “AMARE herbicidal action” value was 10, the “DIGSA herbicidal action” value is 10 and the “POATR herbicidal action” value was 10. Besides, the “SETIT herbicidal action” value was found to be 10.
Turning to `Cc1nn(C)nc1C[S+]([O-])C1=NOC(C)(C)C1F` (single isomer, unassigned) [7.03], the “AGSTE herbicidal action” value is reported as 8, the “AMARE herbicidal action” value came to 6, the “DIGSA herbicidal action” value was 10 and the “POATR herbicidal action” value stood at 10. Moreover, the “SETIT herbicidal action” value came out at 9.
Consider `Cn1nc(OCC(F)(F)F)c(C[S+]([O-])C2=NOC(C)(C)C2F)c1C(F)(F)F` (single isomer, unassigned) [2.42], for which the “AGSTE herbicidal action” value worked out at 0, the “AMARE herbicidal action” value came out at 8, the “DIGSA herbicidal action” value was 8 and the “POATR herbicidal action” value is 8. The “SETIT herbicidal action” value turned out to be 8.
On to `Cn1nc(C(F)(F)F)c(C[S+]([O-])C2=NOC(C)(C)C2F)c1OC(F)F` (mixture of isomers) [2.23], for which the “AGSTE herbicidal action” value came out at 10, the “AMARE herbicidal action” value is 10, the “DIGSA herbicidal action” value came out at 10 and the “POATR herbicidal action” value worked out at 10. Moreover, the “SETIT herbicidal action” value is on record as 10.
Take `Cn1nc(C(F)(F)F)cc1C[S+]([O-])C1=NOC(C)(C)C1F` (mixture of isomers) [6.02]: the “AGSTE herbicidal action” value turned out to be 10, the “AMARE herbicidal action” value is 10, the “DIGSA herbicidal action” value is 9 and the “POATR herbicidal action” value is 10.
